This assay concerns the target STAT3 (Homo sapiens, UniProt P40763). The experiment in a line: biotin pull-down (MDA-MB-231), LC/MS identification and STAT3 Western blot. It counts as cell-based. The text has this:
biotin pull-down (MDA-MB-231), LC/MS identification and STAT3 Western blot on STAT3 | identified the proteins that bind to biotin–ZSW specifically using LC/MS. We determined that STAT3 was specifically stripped

Sequence of STAT3 (P40763 2-770): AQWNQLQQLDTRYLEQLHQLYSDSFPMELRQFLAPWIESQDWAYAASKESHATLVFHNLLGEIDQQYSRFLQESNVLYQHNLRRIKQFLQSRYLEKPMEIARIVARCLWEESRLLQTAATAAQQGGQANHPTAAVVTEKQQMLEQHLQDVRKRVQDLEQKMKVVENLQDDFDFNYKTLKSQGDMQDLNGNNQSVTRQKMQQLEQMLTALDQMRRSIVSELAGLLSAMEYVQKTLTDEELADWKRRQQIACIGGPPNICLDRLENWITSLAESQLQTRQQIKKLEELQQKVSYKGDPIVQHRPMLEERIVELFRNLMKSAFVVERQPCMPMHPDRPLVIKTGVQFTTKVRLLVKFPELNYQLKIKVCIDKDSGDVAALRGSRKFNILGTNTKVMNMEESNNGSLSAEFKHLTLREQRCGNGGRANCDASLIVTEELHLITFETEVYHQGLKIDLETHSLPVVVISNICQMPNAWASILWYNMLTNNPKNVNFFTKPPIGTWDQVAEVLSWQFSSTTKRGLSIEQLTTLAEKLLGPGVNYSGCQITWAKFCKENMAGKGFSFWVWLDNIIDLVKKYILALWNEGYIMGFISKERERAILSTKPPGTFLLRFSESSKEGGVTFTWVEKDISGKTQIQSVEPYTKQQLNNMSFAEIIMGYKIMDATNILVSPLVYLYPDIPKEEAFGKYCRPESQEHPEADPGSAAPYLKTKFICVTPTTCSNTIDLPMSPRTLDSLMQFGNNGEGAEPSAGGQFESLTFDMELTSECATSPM

As to `COc1cc(-c2noc3c2C(=O)c2cccnc2C3=O)cc(OC)c1OCCCOC(=O)CCCCC1SCC2NC(=O)NC21` (stereo not shown) [biotin–ZSW], the “biotin pull-down (MDA-MB-231), LC/MS identification and STAT3 Western blot” value was “identified the proteins that bind to biotin–ZSW specifically using LC/MS. We determined that STAT3 was specifically stripped”.
